Experiments:
PC-3 cells = assay: Fluorescence-based migration assay toward hrMCP-1; type: cell-based, human; settings: MCP-1 1-100 ng/mL
Method: (§1) Flouresence-based Migration Assay—Cell migration was assessed using the Innocyte Cell Migration Assay (Calbiochem, Inc.) following the manufacturer's instructions. Briefly, increasing concentrations of MCP-1 (1-100 ng/mL) in the presence and absence of CCR2 inhibitors or neutralizing antibodies were added to the lower chamber of a 96 well plate. Cells were harvested by 0.5 μM EDTA release and resuspended at 2.5×10^5 cells/mL in serum free media. 2.5×10^4 cells were added to the upper chamber and allowed to migrate through the membrane with 8 μm pores for 24 hours at 37° C. and 5% CO2 atmosphere. Cells that migrated through the membrane were detached and labeled with Calcein AM and fluorescence was measured using fluorescent plate reader with excitation wavelength of 485 nm and emission wavelength of 520 nm. The experiments were repeated twice and each conditioned was performed in quadruplicate in each experiment.

VCaP cells [1] = assay: Fluorescence-based migration assay toward hrMCP-1; type: cell-based, human; settings: MCP-1 1-100 ng/mL
Method: as §1

PC-3Luc cells = assay: Bioluminescent in vivo model of metastasis (Example 4, antibodies and/or docetaxel); design: species or system male SCID mice
Method: Bioluminescent imaging of PC-3Luc was preformed as previously described through The University of Michigan Small Animal Imaging Resource facility (MSAIR) (Loberg et al., 2006. Neoplasia. 8:578-586). Briefly, PC-3Luc cells were introduced into male SCID mice (5-6 wks of age) by intracardiac injections. Mice were serially imaged weekly for up to 12 weeks using a CCD IVIS system using a 50 mm lens (Xenogen Corp, Alameda, Calif.) and the results were analyzed using LIVING IMAGE software (Xenogen Corp.). Mice were separated into groups and treatment began at week 2 post-intracardiac injection and mice received 2 mg/Kg antibody twice weekly by intraperitoneal (i.p.) injection (for up to eight weeks) and/or 40 mg/Kg Taxotere i.p. injection once per week for three weeks. Mice were injected with luciferin (40 mg/mL) intraperitoneally and ventral images were acquired 15 min postinjection under 1.75% isofluorane/air anesthesia. Total tumor burden of each animal was calculated using regions of interest (ROIs) that encompassed the entire animal. Animals were sacrificed after week 6 image and individual organs were harvested and immediately placed in formalin.

VCaP cells [2] = assay: Immunoblot analysis of CCL2 stimulated VCaP cells; type: cell-based, human; settings: CCL2 100 ng/mL for 24 hours
Method: Cells were lysed in RIPA buffer (50 mM Tris-HCl, pH 7.4, 1% NP-40, 150 mM NaCl, 1 mM EDTA, 1 mM PMSF, 1 mM Na3VO4, 1 mM NaF, 1 μM okadaic acid and 1 μg/mL aprotinin, leupeptin and pepstatin). Proteins were separated under reducing conditions by SDS-PAGE and transferred onto nitrocellulose membranes. The membranes were blocked with 5% milk in TBST (0.1% Tween in TBS) for 1 hour at room temperature, then were incubated overnight at 4° C. with primary antibodies. Membranes were washed 3 times prior to incubation with HRP-conjugated secondary antibodies (Cell Signaling) for 1 hour at room temperature. Protein expression was visualized by ECL chemiluminescence (Promega, Madison, Wis.) and quantitated using Image J software (NCl, Bethesda, Md.).

mouse CCL2/JE = mouse CCL2/JE (Mus musculus, UniProt P10148); assay: Cross-reactivity / neutralization; type: binding
Sequence of mouse CCL2/JE (P10148 24-148): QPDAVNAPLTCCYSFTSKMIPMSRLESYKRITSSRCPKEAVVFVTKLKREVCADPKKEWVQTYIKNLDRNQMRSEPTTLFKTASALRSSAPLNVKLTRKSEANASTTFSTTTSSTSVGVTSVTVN

CNTO888: human IgG1κ antibody that neutralizes human CCL2
effect on MCP-1 induced dose dependent migration of PC-3 cells (PC-3 cells): attenuated | effect on MCP-1 induced dose dependent migration of VCaP cells (VCaP cells [1]): attenuated | reduction in overall tumor burden compared to control antibody (PC-3Luc cells; Day 35, 2 mg/Kg twice weekly i.p. for three weeks from Day 14): 46.52% | reduction in tibia-specific tumor burden (PC-3Luc cells; Day 35, compared to control antibody): 45.49% | animals of group counted at Wk 6 (tumor regression, Table 2) (PC-3Luc cells; Wk 6 = First week after cessation of Taxotere): 1 of 9 | total tumor burden at Day 35 (PC-3Luc cells; antibodies 2 mg/Kg i.p. twice weekly, docetaxel 40 mg/Kg i.p.): 52.78 % of PBS-treated animals | CCL2 induced Akt phosphorylation and p44/p42 MAPK phosphorylation (VCaP cells [2]): attenuated | cross-reaction with or neutralization of mouse CCL2/JE (mouse CCL2/JE): do not cross-react with or neutralize

Reference: patent publication US20080118437A1, “Diagnosis and treatment O prostate cancer” (Regents of the University of Michigan, priority 2006, published 2008)
